Data taken from patent US20230183239A1, “ECTONUCLEOTIDE PYROPHOSPHATASE-PHOSPHODIESTERASE 1 (ENPP-1) INHIBITORS AND USES THEREOF” (AbbVie Inc., priority 2017, published 2023).

target: T1, ENPP1 (Homo sapiens, UniProt P22413); assay: Indirect quantitation of 2',3'-cGAMP hydrolysis (AMP-Glo Assay kit); format: biochemical; settings: cGAMP substrate; Ki from IC50 by Cheng-Prusoff; read-out: ENPP1 Inhibition -cGAMP: Ki
T1 sequence (P22413 1-925): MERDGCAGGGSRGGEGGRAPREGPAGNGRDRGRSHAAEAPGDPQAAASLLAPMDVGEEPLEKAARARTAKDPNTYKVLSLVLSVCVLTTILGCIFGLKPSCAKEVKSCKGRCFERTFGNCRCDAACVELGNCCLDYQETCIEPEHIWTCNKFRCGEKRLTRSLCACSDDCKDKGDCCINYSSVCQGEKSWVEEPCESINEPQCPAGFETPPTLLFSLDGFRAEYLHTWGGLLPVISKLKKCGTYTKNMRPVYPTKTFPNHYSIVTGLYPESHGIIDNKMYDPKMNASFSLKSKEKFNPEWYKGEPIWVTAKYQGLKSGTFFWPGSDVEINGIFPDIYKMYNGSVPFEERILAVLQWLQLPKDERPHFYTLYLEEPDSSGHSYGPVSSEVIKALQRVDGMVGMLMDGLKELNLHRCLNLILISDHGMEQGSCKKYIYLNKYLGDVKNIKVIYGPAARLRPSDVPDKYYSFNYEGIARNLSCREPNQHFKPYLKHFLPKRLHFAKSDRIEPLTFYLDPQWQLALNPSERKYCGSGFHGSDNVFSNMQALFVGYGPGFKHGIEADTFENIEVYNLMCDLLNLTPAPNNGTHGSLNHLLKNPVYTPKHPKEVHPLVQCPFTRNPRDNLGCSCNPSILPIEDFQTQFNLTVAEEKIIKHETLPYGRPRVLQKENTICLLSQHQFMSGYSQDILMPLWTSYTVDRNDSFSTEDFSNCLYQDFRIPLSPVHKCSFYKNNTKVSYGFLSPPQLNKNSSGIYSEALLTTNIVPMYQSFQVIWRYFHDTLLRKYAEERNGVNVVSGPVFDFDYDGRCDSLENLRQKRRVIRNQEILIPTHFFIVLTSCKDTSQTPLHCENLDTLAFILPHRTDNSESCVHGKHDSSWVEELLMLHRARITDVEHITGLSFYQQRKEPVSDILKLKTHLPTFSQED

How did the Ki turn out when `Cc1ncnc(N2CCC(NS(N)(=O)=O)CC2)c1C` [Example 39, N-(1-(5,6-dimethylpyrimidin-4-yl)piperidin-4-yl)sulfamide] was run?
The Ki was > 1000 nM.

Which Ki does the source give for `COc1ccc2nccc(-c3ccc4c(c3)CN(S(N)(=O)=O)CC4)c2c1` [Example 358, 7-(6-methoxyquinolin-4-yl)-3,4-dihydroisoquinoline-2(1H)-sulfonamide] here?
Its Ki is < 100 nM.

`COc1cc2nc(-c3ccccn3)nc(N3CCC(CCNS(N)(=O)=O)CC3)c2cc1OC` [Example 4, N-(2-(1-(6,7-dimethoxy-2-(pyridin-2-yl)quinazolin-4-yl)piperidin-4-yl)ethyl)sulfamide] was tested. Which Ki did it give?
The Ki was > 1000 nM.

For `Cn1cnc2ncnc(-c3ccc(CNS(N)(=O)=O)cc3)c21` [Example 128, N-(4-(7-methyl-7H-purin-6-yl)benzyl)sulfamide], which Ki is on record?
Its Ki is 100 to 1000 nM.

`COc1cc2ncnc(NCc3ccc4c(c3)OCO4)c2cc1OC` [Example 336, N-(benzo[d][1,3]dioxol-5-ylmethyl)-6,7-dimethoxyquinazolin-4-amine] was tested. Which Ki did it give?
Its Ki is > 1000 nM.

Which Ki does the source give for `COc1cnc2c(-c3ccc(CNS(N)(=O)=O)cc3)ccnc2c1` [Example 369, N-(4-(7-methoxy-1,5-naphthyridin-4-yl)benzyl)sulfamide] here?
The Ki was > 1000 nM.

With `COc1cc2ncnc(N3CCC(CCNS(=O)(=O)N4CCOCC4)CC3)c2cc1OC` [Example 132, N-(2-(1-(6,7-dimethoxyquinazolin-4-yl)piperidin-4-yl)ethyl)morpholine-4-sulfonamide] as the compound, how does the Ki read?
The Ki was 100 to 1000 nM.

Which Ki does the source give for `COc1ccc2c(c1)OCC(=O)N2Cc1ccc(NS(N)(=O)=O)cc1` [Example 401, N-(4-((7-methoxy-3-oxo-2,3-dihydro-4H-benzo[b][1,4]oxazin-4-yl)methyl)phenyl)sulfamide] here?
The Ki was > 1000 nM.

With `COc1ccc2c(Oc3ccc(NS(N)(=O)=O)cc3Cl)ccnc2c1` [Example 329, N-(3-chloro-4-((7-methoxyquinolin-4-yl)oxy)phenyl)sulfamide] as the compound, how does the Ki read?
The Ki was 100 to 1000 nM.

`COc1ccc2c(Oc3ccc(NS(N)(=O)=O)cc3)ncnc2c1` [Example 322, N-(4-((7-methoxyquinazolin-4-yl)oxy)phenyl)sulfamide] was tested. Which Ki did it give?
The Ki was < 100 nM.

How did the Ki turn out when `Cn1cc(Br)c2ncnc(N3CCC(CCNS(N)(=O)=O)CC3)c21` [Example 138, N-(2-(1-(7-bromo-5-methyl-SH-pyrrolo[3,2-d]pyrimidin-4-yl)piperidin-4-yl)ethyl)sulfamide] was run?
Its Ki is 100 to 1000 nM.

For `COc1cc2ncc(-c3ccc4c(c3)CN(S(N)(=O)=O)CC4)nc2cc1OC` [Example 295, 7-(6,7-dimethoxyquinoxalin-2-yl)-3,4-dihydroisoquinoline-2(1H)-sulfonamide], which Ki is on record?
Its Ki is > 1000 nM.

With `COc1ccc2c(-c3ccc4c(c3)CN(S(N)(=O)=O)CC4)c(C(F)(F)F)cnc2c1` [Example 408, 7-(7-methoxy-3-(trifluoromethyl)quinolin-4-yl)-3,4-dihydroisoquinoline-2(1H)-sulfonamide] as the compound, how does the Ki read?
Its Ki is 100 to 1000 nM.

For `COc1ccc2c(Oc3ccc(NS(N)(=O)=O)c(OC)c3)ccnc2c1` [Example 78, N-(2-methoxy-4-((7-methoxyquinolin-4-yl)oxy)phenyl)sulfamide], which Ki is on record?
Its Ki is < 100 nM.

Which Ki does the source give for `NS(=O)(=O)NCCC1CCN(C(=O)c2ccccc2)CC1` [Example 50, N-(2-(1-(benzoyl)piperidin-4-yl)ethyl)sulfamide] here?
Its Ki is > 1000 nM.

For `Cc1cc(N2CCC(CCNS(N)(=O)=O)CC2)ncn1` [Example 16, N-(2-(1-(6-methylpyrimidin-4-yl)piperidin-4-yl)ethyl)sulfamide], which Ki is on record?
Its Ki is > 1000 nM.

Which Ki does the source give for `COc1cc2ncnc(N3CCC(CCNS(=O)(=O)c4ccccn4)CC3)c2cc1OC` [Example 155, N-(2-(1-(6,7-dimethoxyquinazolin-4-yl)piperidin-4-yl)ethyl)pyridine-2-sulfonamide] here?
Its Ki is 100 to 1000 nM.

How did the Ki turn out when `COc1cc2ncnc(N3CCC(CCNC(C)=O)CC3)c2cc1OC` [Example 335, N-(2-(1-(6,7-dimethoxyquinazolin-4-yl)piperidin-4-yl)ethyl)acetamide] was run?
The Ki was 100 to 1000 nM.

With `COc1ccc2c(Oc3ccc4c(c3)CCC(=O)N4)ccnc2c1` [Example 318, 6-((7-methoxyquinolin-4-yl)oxy)-3,4-dihydroquinolin-2(1H)-one] as the compound, how does the Ki read?
Its Ki is > 1000 nM.

`COc1cc(C#N)c(C(=O)N2CCC(CCNS(N)(=O)=O)CC2)cc1OC` [Example 129, N-(2-(1-(2-cyano-4,5-dimethoxybenzoyl)piperidin-4-yl)ethyl)sulfamide] was tested. Which Ki did it give?
The Ki was > 1000 nM.

`CNS(=O)(=O)NCCC1CCN(c2ncnc3cc(OC)c(OC)cc23)CC1` [Example 168, 2-(1-(6,7-dimethoxyquinazolin-4-yl)piperidin-4-yl)ethan-1-amino(N-methyl)sulfonamide] was tested. Which Ki did it give?
The Ki was > 1000 nM.

With `COc1ccc2c(-c3ccc4c(c3)CCN(S(N)(=O)=O)C4)ccnc2c1` [Example 366, 6-(7-methoxyquinolin-4-yl)-3,4-dihydroisoquinoline-2(1H)-sulfonamide] as the compound, how does the Ki read?
Its Ki is > 1000 nM.

`COc1cc2nccc(N(C)Cc3ccc(NS(N)(=O)=O)cc3)c2cc1OC` [Example 255, N-(4-(((6,7-dimethoxyquinolin-4-yl)(methyl)amino)methyl)phenyl)s ulfamide] was tested. Which Ki did it give?
Its Ki is > 1000 nM.

With `NS(=O)(=O)NCCC1CCN(c2ccnc3ncn(-c4ccccc4)c23)CC1` [Example 211, N-(2-(1-(1-phenyl-1H-imidazo[4,5-b]pyridin-7-yl)piperidin-4-yl)ethyl)sulfamide] as the compound, how does the Ki read?
The Ki was > 1000 nM.

Which Ki does the source give for `COc1cc2nc(N(C)C)nc(N3CCC(CCNC=O)CC3)c2cc1OC` [Example 118, N-(2-(1-(2-(dimethylamino)-6,7-dimethoxyquinazolin-4-yl)piperidin-4-yl)ethyl)formamide] here?
Its Ki is > 1000 nM.

For `NS(=O)(=O)NCCC1CCN(c2ncnc3cc4c(cc23)OCO4)CC1` [Example 170, N-(2-(1-([1,3]dioxolo[4,5-g]quinazolin-8-yl)piperidin-4-yl)ethyl)sulfamide], which Ki is on record?
Its Ki is > 1000 nM.

For `COc1cc2cnn(-c3ccc(CNS(N)(=O)=O)cc3)c2cc1OC` [Example 166, N-(4-(5,6-dimethoxy-1H-indazol-1-yl)benzyl)sulfamide], which Ki is on record?
The Ki was 100 to 1000 nM.

For `COc1ccc2c(-c3cc4c(cc3F)CCN(S(N)(=O)=O)C4)ccnc2c1` [Example 409, 6-fluoro-7-(7-methoxyquinolin-4-yl)-3,4-dihydroisoquinoline-2(1H)-sulfamide], which Ki is on record?
The Ki was > 1000 nM.

How did the Ki turn out when `COc1ccc2c(Oc3ccc(NS(N)(=O)=O)cn3)ccnc2c1` [Example 320, N-(6-((7-methoxyquinolin-4-yl)oxy)pyridin-3-yl)sulfamide] was run?
Its Ki is < 100 nM.

Which Ki does the source give for `Cn1ncc2c(N3CCC(CCNS(N)(=O)=O)CC3)ccnc21` [Example 135, N-(2-(1-(1-methyl-1H-pyrazolo[3,4-b]pyridin-4-yl)piperidin-4-yl)ethyl)sulfamide] here?
The Ki was 100 to 1000 nM.

Which Ki does the source give for `COc1cc2ncnc(OCc3ccc(NS(N)(=O)=O)cc3)c2cc1OC` [Example 179, N-(4-(((6,7-dimethoxyquinazolin-4-yl)oxy)methyl)phenyl)sulfamide] here?
Its Ki is > 1000 nM.

Which Ki does the source give for `COc1cc2ncnc(NCc3ccc(N4CCNS4(=O)=O)cc3)c2cc1OC` [Example 228, 2-(4-(((6,7-dimethoxyquinazolin-4-yl)amino)methyl)phenyl)-1,2,5-thiadiazolidine 1,1-dioxide] here?
The Ki was > 1000 nM.

Which Ki does the source give for `COc1cc2ncnc(NC(=O)c3ccc(NS(N)(=O)=O)cc3)c2cc1OC` [Example 188, N-(6,7-dimethoxyquinazolin-4-yl)-4-(sulfamoylamino)benzamide] here?
Its Ki is 100 to 1000 nM.

For `COc1cc2nccc(Oc3ccc(N)c(F)c3)c2cc1OC` [Example 344, 4-((6,7-dimethoxyquinolin-4-yl)oxy)-2-fluoroaniline], which Ki is on record?
The Ki was > 1000 nM.

For `COc1cc2c(-c3ccc4c(c3)CN(S(N)(=O)=O)CC4)c(C#N)cnc2cn1` [Example 257, 7-(3-cyano-6-methoxy-1,7-naphthyridin-4-yl)-3,4-dihydroisoquinoline-2(1H)-sulfonamide], which Ki is on record?
Its Ki is > 1000 nM.

For `COc1cc2ncnc(Nc3ccc(CC(=O)O)cc3)c2cc1OC` [Example 332, 2-(4-((6,7-dimethoxyquinazolin-4-yl)amino)phenyl)acetic acid], which Ki is on record?
Its Ki is > 1000 nM.

With `CNC(=O)c1ccc2c(N3CCC(CCNS(N)(=O)=O)CC3)ncnc2c1` [Example 163, N-methyl-4-(4-(2-(sulfamoylamino)ethyl)piperidin-1-yl)quinazoline-7-carboxamide] as the compound, how does the Ki read?
The Ki was > 1000 nM.

Which Ki does the source give for `COc1ccc2c(Oc3ccc(N(C)S(N)(=O)=O)cc3)ccnc2c1` [Example 77, N-(4-((7-methoxyquinolin-4-yl)oxy)phenyl)-N-methylsulfamide] here?
The Ki was < 100 nM.

Which Ki does the source give for `COc1cc2ncnc(NC(C)(C)c3ccc(NS(N)(=O)=O)cc3)c2cc1OC` [Example 287, N-(4-(2-((6,7-dimethoxyquinazolin-4-yl)amino)propan-2-yl)phenyl)sulfamide] here?
Its Ki is > 1000 nM.

For `COc1cc2ncnc(N3CCN(C(=O)CN)CC3)c2cc1OC` [Example 119, 2-amino-1-(4-(6,7-dimethoxyquinazolin-4-yl)piperazin-1-yl)ethan-1-one], which Ki is on record?
The Ki was > 1000 nM.
